Source: PubChem BioAssay AID248 (DTP/NCI, 2004)
Where “and” joins values, the source holds several entries; their conditions need not be identical. Equal values may be shown once. Toxic doses and inconclusive results are not listed. No stated cut-off is given here; in the data, active means T/C of 150% or more; inactive means T/C below 125%.

Test system: L1210 leukemia ip in BDF1 mice, survival T/C
Test: NCI In Vivo Anticancer Drug Screen. Data for tumor model L1210 Leukemia (intraperitoneal) in B6D2F1 (BDF1) mice
Details: endpoint: mean survival time, higher = longer survival
How it was run: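 Tumor was transplanted into mice, which were then dosed with test compound or vehicle alone. Survival was recorded for each group, and the treated figure was expressed relative to the control figure.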

[1] = dose: 50.0 mg/kg/injection, schedule: Q04DX002 (ip), vehicle: Klucel (hydroxypropylcellulose) (HPC)
[2] = dose: 100.0 mg/kg/injection, schedule: Q04DX002 (ip), vehicle: Klucel (hydroxypropylcellulose) (HPC)
[3] = dose: 200.0 mg/kg/injection, schedule: Q04DX002 (ip), vehicle: Klucel (hydroxypropylcellulose) (HPC)
[4] = dose: 100.0 mg/kg/injection, schedule: Q04DX002 (ip), vehicle: saline with Tween-80
[5] = dose: 12.5 mg/kg/injection, schedule: Q04DX002 (ip), vehicle: Klucel (hydroxypropylcellulose) (HPC)
[6] = dose: 25.0 mg/kg/injection, schedule: Q04DX002 (ip), vehicle: Klucel (hydroxypropylcellulose) (HPC)
[7] = dose: 100.0 mg/kg/injection, schedule: Q01DX001 (ip), vehicle: carboxymethylcellulose (CMC)
[8] = dose: 200.0 mg/kg/injection, schedule: Q01DX001 (ip), vehicle: carboxymethylcellulose (CMC)
[9] = dose: 400.0 mg/kg/injection, schedule: Q01DX001 (ip), vehicle: carboxymethylcellulose (CMC)
[10] = dose: 100.0 mg/kg/injection, schedule: Q01DX009 (ip), vehicle: Klucel (hydroxypropylcellulose) (HPC)
[11] = dose: 200.0 mg/kg/injection, schedule: Q01DX009 (ip), vehicle: Klucel (hydroxypropylcellulose) (HPC)
[12] = dose: 400.0 mg/kg/injection, schedule: Q01DX009 (ip), vehicle: Klucel (hydroxypropylcellulose) (HPC)
[13] = dose: 100.0 mg/kg/injection, schedule: Q01DX001 (ip), vehicle: saline
[14] = dose: 200.0 mg/kg/injection, schedule: Q01DX001 (ip), vehicle: saline
[15] = dose: 400.0 mg/kg/injection, schedule: Q01DX001 (ip), vehicle: saline
[16] = dose: 100.0 mg/kg/injection, schedule: Q04DX003 (ip), vehicle: Klucel (hydroxypropylcellulose) (HPC)
[17] = dose: 200.0 mg/kg/injection, schedule: Q04DX003 (ip), vehicle: Klucel (hydroxypropylcellulose) (HPC)
[18] = dose: 400.0 mg/kg/injection, schedule: Q04DX003 (ip), vehicle: Klucel (hydroxypropylcellulose) (HPC)
[19] = dose: 400.0 mg/kg/injection, schedule: Q04DX002 (ip), vehicle: Klucel (hydroxypropylcellulose) (HPC)

Measured: T/C

CC(C)/C=N/NC(N)=S
inactive: dose: 3.13 mg/kg/injection, schedule: Q01DX001 (ip), vehicle: Klucel (hydroxypropylcellulose) (HPC) 102 % of control | dose: 6.25 mg/kg/injection, schedule: Q01DX001 (ip), vehicle: Klucel (hydroxypropylcellulose) (HPC) 118 % of control | dose: 12.5 mg/kg/injection, schedule: Q01DX001 (ip), vehicle: Klucel (hydroxypropylcellulose) (HPC) 99 % of control and 102 % of control

CN(Cc1ccccc1)N=Nc1ccccc1
inactive: [1] 103 % of control | [2] 95 % of control | [3] 116 % of control

CCCCN=Cc1ccc(Cl)cc1
inactive: [4] 90 % of control | dose: 200.0 mg/kg/injection, schedule: Q04DX002 (ip), vehicle: saline with Tween-80 87 % of control | dose: 400.0 mg/kg/injection, schedule: Q04DX002 (ip), vehicle: saline with Tween-80 100 % of control

FC(F)(F)c1ccc(C=C2c3ccccc3-c3ccccc32)cc1
inactive: [5] 92 % of control | [6] 92 % of control | [1] 92 % of control

COCNC(=S)N/N=C/c1ccccn1
inactive: dose: 12.5 mg/kg/injection, schedule: Q01DX009 (ip), vehicle: saline with Tween-80 124 % of control | dose: 50.0 mg/kg/injection, schedule: Q01DX009 (ip), vehicle: saline with Tween-80 124 % of control

Clc1ccc(C2ON2C2CCCCC2)cc1 (configuration not stated)
inactive: [7] 95 % of control | [8] 101 % of control | [9] 101 % of control

CCc1oc2cc([N+](=O)[O-])ccc2c1C#N
inactive: [6] 86 % of control | [1] 89 % of control | [10] 97 % of control | [2] 93 % of control | [11] 101 % of control | [12] 97 % of control

O=C(O)c1c(O)c2cc(Br)ccc2oc1=O
inactive: [13] 98 % of control | [14] 98 % of control | [15] 102 % of control

O=C(O)/C=C/c1ccc(Cl)cc1
inactive: dose: 100.0 mg/kg/injection, schedule: Q04DX002 (ip), vehicle: gum acacia 107 % of control | dose: 200.0 mg/kg/injection, schedule: Q04DX002 (ip), vehicle: gum acacia 95 % of control | dose: 400.0 mg/kg/injection, schedule: Q04DX002 (ip), vehicle: gum acacia 107 % of control

CCC[CH2][Pb]([Cl])([Cl])[CH2]CCC
inactive: dose: 5.0 mg/kg/injection, schedule: Q01DX001 (ip), vehicle: carboxymethylcellulose (CMC) 95 % of control | dose: 20.0 mg/kg/injection, schedule: Q01DX001 (ip), vehicle: carboxymethylcellulose (CMC) 108 % of control | dose: 40.0 mg/kg/injection, schedule: Q01DX001 (ip), vehicle: carboxymethylcellulose (CMC) 97 % of control | [7] 103 % of control

O=C(Nc1ccccc1F)c1ccco1
inactive: [10] 100 % of control | [11] 103 % of control

Nc1cc2c(cc1[N+](=O)[O-])-c1ccccc1/C2=N\O
inactive: [7] 91 % of control | [8] 100 % of control | [9] 88 % of control

N#CC(C#N)=C1C(=O)c2ccccc2-c2ccccc21
inactive: [13] 107 % of control | [14] 109 % of control | [15] 105 % of control

Oc1cc(Br)ccc1C=Nc1ccc(N2CCCCC2)cc1
inactive: [10] 92 % of control | [16] 100 % of control | [11] 94 % of control | [17] 101 % of control | [12] 89 % of control | [18] 103 % of control

O=S(=O)(O)SCNCNCCSCc1ccccc1
inactive: [5] 91 % of control | [6] 112 % of control | [1] 91 % of control

O=S(=O)(O)NC1CCCCC1
inactive: dose: 25.0 mg/kg/injection, schedule: Q01DX009 (ip), vehicle: acetone 100 % of control | dose: 50.0 mg/kg/injection, schedule: Q01DX009 (ip), vehicle: acetone 100 % of control | dose: 100.0 mg/kg/injection, schedule: Q01DX009 (ip), vehicle: acetone 100 % of control | [15] 95 % of control | dose: 800.0 mg/kg/injection, schedule: Q01DX001 (ip), vehicle: saline 90 % of control | dose: 1200.0 mg/kg/injection, schedule: Q01DX001 (ip), vehicle: saline 86 % of control | dose: 1600.0 mg/kg/injection, schedule: Q01DX001 (ip), vehicle: saline 92 % of control

N#CCC(=O)NCCc1ccccn1
inactive: dose: 25.0 mg/kg/injection, schedule: Q04DX002 (ip), vehicle: saline with Tween-80 93 % of control | dose: 50.0 mg/kg/injection, schedule: Q04DX002 (ip), vehicle: saline with Tween-80 97 % of control | [4] 98 % of control and 101 % of control

CCOC(=O)C1=C2C(C(=O)OCC)C(O)=C(C(=O)OCC)C2C(C(=O)OCC)C1=O (configuration not stated)
inactive: [13] 103 % of control | dose: 100.0 mg/kg/injection, schedule: Q01DX009 (ip), vehicle: saline 104 % of control | dose: 100.0 mg/kg/injection, schedule: Q04DX003 (ip), vehicle: saline 97 % of control | [14] 92 % of control | dose: 200.0 mg/kg/injection, schedule: Q01DX009 (ip), vehicle: saline 104 % of control | dose: 200.0 mg/kg/injection, schedule: Q04DX003 (ip), vehicle: saline 103 % of control | [15] 97 % of control | dose: 400.0 mg/kg/injection, schedule: Q01DX009 (ip), vehicle: saline 109 % of control | dose: 400.0 mg/kg/injection, schedule: Q04DX003 (ip), vehicle: saline 117 % of control

c1ccc(P(CN(CCN(CP(c2ccccc2)c2ccccc2)CP(c2ccccc2)c2ccccc2)CP(c2ccccc2)c2ccccc2)c2ccccc2)cc1
inactive: dose: 100.0 mg/kg/injection, schedule: Q04DX002 (sc), vehicle: olive oil, sesame oil, peanut oil 100 % of control | dose: 200.0 mg/kg/injection, schedule: Q04DX002 (sc), vehicle: olive oil, sesame oil, peanut oil 110 % of control | dose: 400.0 mg/kg/injection, schedule: Q04DX002 (sc), vehicle: olive oil, sesame oil, peanut oil 107 % of control

O=S(O)c1cc(Br)ccc1Br
inactive: [10] 97 % of control | [16] 93 % of control | [11] 113 % of control | [17] 104 % of control | [18] 94 % of control

CN(CCO)C(=O)C1C(c2ccccc2)C1c1ccccc1 (configuration not stated)
inactive: [2] 100 % of control | [3] 94 % of control | [19] 97 % of control

O=C1C(Cl)=C(NC2CCCC2)C(=O)c2ccccc21
inactive: dose: 12.5 mg/kg/injection, schedule: Q01DX001 (ip), vehicle: saline with Tween-80 94 % of control | dose: 25.0 mg/kg/injection, schedule: Q01DX001 (ip), vehicle: saline with Tween-80 94 % of control

C/C=C(\C)C(=O)O
inactive: dose: 222.0 mg/kg/injection, schedule: Q01DX Z (ip), vehicle: saline 90 % of control

COc1ccccc1CN1CCCN(Cc2ccccc2OC)C1c1ccccc1F
inactive: dose: 50.0 mg/kg/injection, schedule: Q01DX001 (ip), vehicle: carboxymethylcellulose (CMC) 114 % of control | [7] 108 % of control | [8] 96 % of control | [9] 112 % of control

CCC/C(=N\NC(=O)c1ccccc1O)c1ccccc1
inactive: [7] 105 % of control | dose: 100.0 mg/kg/injection, schedule: Q01DX009 (ip), vehicle: carboxymethylcellulose (CMC) 102 % of control and 89 % of control | dose: 100.0 mg/kg/injection, schedule: Q04DX002 (ip), vehicle: carboxymethylcellulose (CMC) 95 % of control and 107 % of control | dose: 100.0 mg/kg/injection, schedule: Q04DX003 (ip), vehicle: carboxymethylcellulose (CMC) 93 % of control | [8] 100 % of control | dose: 200.0 mg/kg/injection, schedule: Q01DX009 (ip), vehicle: carboxymethylcellulose (CMC) 94 % of control and 89 % of control | dose: 200.0 mg/kg/injection, schedule: Q04DX002 (ip), vehicle: carboxymethylcellulose (CMC) 98 % of control and 102 % of control | dose: 200.0 mg/kg/injection, schedule: Q04DX003 (ip), vehicle: carboxymethylcellulose (CMC) 89 % of control | [9] 100 % of control | dose: 400.0 mg/kg/injection, schedule: Q01DX009 (ip), vehicle: carboxymethylcellulose (CMC) 94 % of control and 98 % of control | dose: 400.0 mg/kg/injection, schedule: Q04DX002 (ip), vehicle: carboxymethylcellulose (CMC) 98 % of control and 103 % of control | dose: 400.0 mg/kg/injection, schedule: Q04DX003 (ip), vehicle: carboxymethylcellulose (CMC) 98 % of control

COc1ccc(C2Nc3ccccc3NC3CC(C)(C)CC(=O)C32)cc1 (configuration not stated)
inactive: [2] 120 % of control | [3] 98 % of control | [19] 109 % of control
